Experimental findings from PubChem BioAssay AID248 (DTP/NCI, 2004) are described below.

“And” between values parts separate entries of the source, which are not always exact repeats. Identical values can stand only once. Toxic doses and inconclusive results are not listed.

In the assay the test system is L1210 leukemia ip in BDF1 mice, survival T/C. Kind of assay: NCI In Vivo Anticancer Drug Screen. Data for tumor model L1210 Leukemia (intraperitoneal) in B6D2F1 (BDF1) mice. The settings on record: endpoint: mean survival time, higher = longer survival. The gist of the method:
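Transplantable tumor model; survival measured in treated vs vehicle control mice. Value = treated/control.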

Setting [1] is: dose: 25.0 mg/kg/injection, schedule: Q01DX009 (ip), vehicle: Klucel (hydroxypropylcellulose) (HPC).
Where [2] appears, read: dose: 50.0 mg/kg/injection, schedule: Q01DX009 (ip), vehicle: Klucel (hydroxypropylcellulose) (HPC).
The mark [3] stands for this setting: dose: 100.0 mg/kg/injection, schedule: Q01DX009 (ip), vehicle: Klucel (hydroxypropylcellulose) (HPC).
Setting [4] is: dose: 100.0 mg/kg/injection, schedule: Q04DX003 (ip), vehicle: Klucel (hydroxypropylcellulose) (HPC).
Where [5] appears, read: dose: 200.0 mg/kg/injection, schedule: Q01DX009 (ip), vehicle: Klucel (hydroxypropylcellulose) (HPC).
[6] abbreviates: dose: 200.0 mg/kg/injection, schedule: Q04DX003 (ip), vehicle: Klucel (hydroxypropylcellulose) (HPC).
Where [7] appears, read: dose: 400.0 mg/kg/injection, schedule: Q04DX003 (ip), vehicle: Klucel (hydroxypropylcellulose) (HPC).
The mark [8] stands for this setting: dose: 400.0 mg/kg/injection, schedule: Q01DX009 (ip), vehicle: Klucel (hydroxypropylcellulose) (HPC).

For the compound `CNC(=S)N/N=C(\C)CSC/C(C)=N/NC(=S)NC`, the T/C by setting is: (dose: 1.56 mg/kg/injection, schedule: Q03HX024 (ip), vehicle: Klucel (hydroxypropylcellulose) (HPC)) 97 % of control; (dose: 3.12 mg/kg/injection, schedule: Q01DX009 (ip), vehicle: Klucel (hydroxypropylcellulose) (HPC)) 95 % of control; (dose: 3.12 mg/kg/injection, schedule: Q03HX024 (ip), vehicle: Klucel (hydroxypropylcellulose) (HPC)) 93 % of control; (dose: 6.25 mg/kg/injection, schedule: Q01DX009 (ip), vehicle: Klucel (hydroxypropylcellulose) (HPC)) 92 % of control; (dose: 6.25 mg/kg/injection, schedule: Q03HX024 (ip), vehicle: Klucel (hydroxypropylcellulose) (HPC)) 92 % of control; (dose: 6.25 mg/kg/injection, schedule: Q04DX003 (ip), vehicle: Klucel (hydroxypropylcellulose) (HPC)) 95 % of control. Further, the T/C is 93 % of control (dose: 12.5 mg/kg/injection, schedule: Q01DX009 (ip), vehicle: Klucel (hydroxypropylcellulose) (HPC)); 95 % of control (dose: 12.5 mg/kg/injection, schedule: Q03HX024 (ip), vehicle: Klucel (hydroxypropylcellulose) (HPC)); 102 % of control (dose: 12.5 mg/kg/injection, schedule: Q04DX003 (ip), vehicle: Klucel (hydroxypropylcellulose) (HPC)); 109 % of control under setting [1]; 103 % of control (dose: 25.0 mg/kg/injection, schedule: Q03HX024 (ip), vehicle: Klucel (hydroxypropylcellulose) (HPC)); 97 % of control (dose: 25.0 mg/kg/injection, schedule: Q04DX003 (ip), vehicle: Klucel (hydroxypropylcellulose) (HPC)). For the same compound, the T/C was 98 % of control (dose: 30.0 mg/kg/injection, schedule: Q04DX003 (ip), vehicle: saline); 104 % of control under setting [2]; 106 % of control (dose: 50.0 mg/kg/injection, schedule: Q03HX024 (ip), vehicle: Klucel (hydroxypropylcellulose) (HPC)); 98 % of control (dose: 60.0 mg/kg/injection, schedule: Q04DX003 (ip), vehicle: saline); 108 % of control under setting [3]; 116 % of control (dose: 100.0 mg/kg/injection, schedule: Q03HX024 (ip), vehicle: Klucel (hydroxypropylcellulose) (HPC)). For the same compound, the T/C is, setting by setting: under setting [4], 92 % of control; (dose: 120.0 mg/kg/injection, schedule: Q04DX003 (ip), vehicle: saline) 101 % of control; under setting [5], 96 % of control; under setting [6], 107 % of control; under setting [7], 98 % of control.

For the compound `Nc1c([N+](=O)[O-])cc([N+](=O)[O-])c2ccccc12`, the T/C by setting is: (dose: 15.0 mg/kg/injection, schedule: Q01DX015 (ip), vehicle: carboxymethylcellulose (CMC)) 91 % of control; (dose: 30.0 mg/kg/injection, schedule: Q01DX015 (ip), vehicle: carboxymethylcellulose (CMC)) 91 % of control; (dose: 50.0 mg/kg/injection, schedule: Q01DX001 (ip), vehicle: carboxymethylcellulose (CMC)) 104 % of control; (dose: 60.0 mg/kg/injection, schedule: Q01DX015 (ip), vehicle: carboxymethylcellulose (CMC)) 102 % of control; (dose: 100.0 mg/kg/injection, schedule: Q01DX001 (ip), vehicle: carboxymethylcellulose (CMC)) 101 % of control; (dose: 120.0 mg/kg/injection, schedule: Q01DX015 (ip), vehicle: carboxymethylcellulose (CMC)) 98 % of control.

In the case of `CCCCCCCCCCCC(=O)N/N=C/c1ccccc1OC`, the T/C is 90 % of control under setting [1]; 94 % of control under setting [2]; 87 % of control and 90 % of control under setting [3].

Regarding `CC(=S)NC(=O)Nc1cccc2ccccc12`, the T/C reads like this: (dose: 100.0 mg/kg/injection, schedule: Q01DX001 (ip), vehicle: Klucel (hydroxypropylcellulose) (HPC)) 88 % of control; (dose: 200.0 mg/kg/injection, schedule: Q01DX001 (ip), vehicle: Klucel (hydroxypropylcellulose) (HPC)) 91 % of control.

Turning to `O=Cc1ccc(N(c2ccccc2)c2ccccc2)cc1`, the T/C by setting is: under setting [3], 102 % of control; under setting [4], 96 % of control; under setting [5], 91 % of control; under setting [6], 100 % of control; under setting [8], 94 % of control; under setting [7], 94 % of control.

Consider `NS(=O)(=O)c1cc(Br)c(N=Nc2ccc(O)c3ncccc23)c(Br)c1`, for which the T/C (dose: 100.0 mg/kg/injection, schedule: Q01DX001 (ip), vehicle: saline) was 100 % of control; the T/C (dose: 200.0 mg/kg/injection, schedule: Q01DX001 (ip), vehicle: saline) was 100 % of control; the T/C (dose: 400.0 mg/kg/injection, schedule: Q01DX001 (ip), vehicle: saline) was 108 % of control.

With `CCSc1nc(N)nc2c1ncn2C`, the T/C by setting is: (dose: 100.0 mg/kg/injection, schedule: Q01DX001 (ip), vehicle: acetone) 94 % of control; (dose: 200.0 mg/kg/injection, schedule: Q01DX001 (ip), vehicle: acetone) 91 % of control; (dose: 400.0 mg/kg/injection, schedule: Q01DX001 (ip), vehicle: acetone) 90 % of control.

In the case of `CCOC(=O)C1=CCC(n2cc(F)c(=O)[nH]c2=O)O1` (stereo not drawn), the T/C is, setting by setting: (dose: 100.0 mg/kg/injection, schedule: Q04DX003 (ip), vehicle: saline with Tween-80) 98 % of control; (dose: 200.0 mg/kg/injection, schedule: Q04DX003 (ip), vehicle: saline with Tween-80) 102 % of control; (dose: 400.0 mg/kg/injection, schedule: Q04DX003 (ip), vehicle: saline with Tween-80) 98 % of control.

For the compound `O=C(O)/C(=C\c1ccc([N+](=O)[O-])cc1)CCc1ccccc1`, the T/C under setting [3] is 91 % of control, the T/C under setting [5] is 92 % of control and the T/C under setting [8] was 92 % of control.

For `O=NN(CCCl)C(=O)NC1CCS(=O)(=O)CC1`, the T/C is 228 % of control (dose: 6.0 mg/kg/injection, schedule: Q01DX001 (ip), vehicle: carboxymethylcellulose (CMC)); 313 % of control (dose: 7.5 mg/kg/injection, schedule: Q01DX001 (ip), vehicle: carboxymethylcellulose (CMC)); 235 % of control (dose: 8.0 mg/kg/injection, schedule: Q01DX001 (ip), vehicle: carboxymethylcellulose (CMC)); 337 % of control (dose: 11.4 mg/kg/injection, schedule: Q01DX001 (ip), vehicle: carboxymethylcellulose (CMC)); 211 % of control and 319 % of control (dose: 12.0 mg/kg/injection, schedule: Q01DX001 (ip), vehicle: carboxymethylcellulose (CMC)); 337 % of control (dose: 17.0 mg/kg/injection, schedule: Q01DX001 (ip), vehicle: carboxymethylcellulose (CMC)). The T/C is, setting by setting: (dose: 18.0 mg/kg/injection, schedule: Q01DX001 (ip), vehicle: carboxymethylcellulose (CMC)) 319 % of control; (dose: 37.0 mg/kg/injection, schedule: Q01DX001 (ip), vehicle: carboxymethylcellulose (CMC)) 93 % of control and 105 % of control.

Turning to `CCCCCCCCCCCCCCCC/C(C)=C\C(=O)OC`, the T/C is 93 % of control (dose: 100.0 mg/kg/injection, schedule: Q04DX003 (ip), vehicle: other); 93 % of control (dose: 200.0 mg/kg/injection, schedule: Q04DX003 (ip), vehicle: other); 93 % of control (dose: 400.0 mg/kg/injection, schedule: Q04DX003 (ip), vehicle: other).

Regarding `CCCC(C(=O)OCCN(CC)CC)(c1ccccc1)c1ccccc1`, the T/C by setting is: (dose: 6.25 mg/kg/injection, schedule: Q01DX009 (ip), vehicle: saline) 106 % of control; (dose: 12.5 mg/kg/injection, schedule: Q01DX009 (ip), vehicle: saline) 92 % of control; (dose: 12.5 mg/kg/injection, schedule: Q04DX003 (ip), vehicle: saline) 102 % of control; (dose: 25.0 mg/kg/injection, schedule: Q01DX009 (ip), vehicle: saline) 93 % of control; (dose: 25.0 mg/kg/injection, schedule: Q04DX003 (ip), vehicle: saline) 116 % of control; (dose: 50.0 mg/kg/injection, schedule: Q01DX009 (ip), vehicle: saline) 93 % of control. Moreover, the T/C is, setting by setting: (dose: 50.0 mg/kg/injection, schedule: Q04DX003 (ip), vehicle: saline) 100 % of control; (dose: 100.0 mg/kg/injection, schedule: Q04DX003 (ip), vehicle: saline) 102 % of control.

`CC1CC(=O)N(Cl)C(=O)N1Cl` (stereo not drawn): the T/C is, setting by setting: (dose: 75.0 mg/kg/injection, schedule: Q01DX001 (ip), vehicle: saline) 102 % of control; (dose: 150.0 mg/kg/injection, schedule: Q01DX001 (ip), vehicle: saline) 106 % of control.

As to `CC(CCNc1ccc(NCCC(C)CC(C)(C)C)cc1)CC(C)(C)C` (stereo not drawn), the T/C under setting [3] is 98 % of control; the T/C under setting [4] was 110 % of control; the T/C under setting [5] is 101 % of control; the T/C under setting [6] was 102 % of control; the T/C under setting [7] is 96 % of control.
